Measured values published in patent publication US5455222A, “1-substituted-5-thiomethylthiocyanato-1H-tetrazoles, compositions containing them and their use as antimicrobial and marine antifouling agents” (The Dow Chemical Company, priority 1994, dated 1995).
Values after ≈ are worked out from the molar mass of the structure shown.

How the values were obtained:
Escherichia coli (Ec) = test: Minimum inhibitory concentration (MIC), bacteria in nutrient agar; assay type: cell-based, Escherichia coli ATCC 11229; conditions: 48 hours
Experimental: (§1) The minimum inhibitory concentration (MIC) for the compounds listed in Table I is determined for 9 bacteria, using nutrient agar, and 7 yeast and fungi, using malt yeast agar. A one percent solution of the test compound is prepared in a mixture of acetone and water.
(§2) Nutrient agar is prepared at pH 6.8, representing a neutral medium, and at pH 8.2, representing an alkaline medium. The nutrient agars are prepared by adding 23 g of nutrient agar to one liter of deionized water. In addition, the alkaline medium is prepared by adjusting a 0.04M solution of N-[tris-(hydroxymethyl)methyl]glycine buffered deionized water with concentrated sodium hydroxide to a pH of 8.5.
(§3) The test tubes containing the agar are cooled in a water bath until the temperature of the agar is 48° C. Then, an appropriate amount of the one percent solution of the test compound is added (except in the controls where no compound is added) to the respective test tubes so that the final concentrations are 500, 250, 100, 50, 25, 10, 5, 2.5, 1.0 and zero parts per million of the test compound in the agar, thus having a known concentration of test compound dispersed therein. The contents of the test tubes are then transferred to respective petri plates. After drying for 24 hours, the petri plates containing nutrient agar are inoculated with bacteria and those containing malt yeast agar are inoculated with yeast and fungi.
(§4) The inoculation with bacteria is accomplished by using the following procedure. Twenty-four hour-cultures of each of the bacteria are prepared by incubating the respective bacteria in tubes containing nutrient broth for 24 hours at 30° C. in a shaker. Dilutions of each of the 24 hour-cultures are made so that nine separate suspensions (one for each of the nine test bacteria) are made, each containing 10^8 colony forming units (CFU) per mL of suspension of a particular bacteria. Aliquots of 0.3 mL of each of the bacterial suspensions are used to fill the individual wells of Steer's Replicator. For each microbial suspension, 0.3 mL was used to fill three wells (i.e., three wells of 0.3 mL each) so that for the nine different bacteria, 27 wells are filled. The Steer's Replicator is then used to inoculate both the neutral and alkaline pH nutrient agar petri plates.
(§5) The inoculated petri plates are incubated at 30° C. for 48 hours and then read to determine if the test compound which is incorporated into the agar prevented growth of the respective bacteria.
(§6) Table II lists the bacteria, yeast and fungi used in the MIC test described above along with their respective American Type Culture Collection (ATCC) identification numbers.
(§7) In Tables III and IV, the MIC values of the compounds described in Table I as compared to the MIC of a standard commercial preservative (with 1-(3-chloroallyl)-3,5,7-triaza-1-azoniaadamantane chloride as the active agent and referred to in Tables III and IV as "STANDARD I") are set forth for the bacteria organisms and yeast/fungi organisms which are listed in Table II.

[1] = tested on: Klebsiella pneumoniae (Kp); test: as above; assay type: cell-based, Klebsiella pneumoniae ATCC 8308; conditions: 48 hours
Experimental: as §1, §2, §3, §4, §5, §6, §7

Proteus vulgaris (Pv) = test: as above; assay type: cell-based, Proteus vulgaris ATCC 881; conditions: 48 hours
Experimental: as §1, §2, §3, §4, §5, §6, §7

[2] = tested on: Pseudomonas aeruginosa (PRD-10); test: as above; assay type: cell-based, Pseudomonas aeruginosa ATCC 15442; conditions: 48 hours
Experimental: as §1, §2, §3, §4, §5, §6, §7

[3] = tested on: Salmonella choleraesuis (Sc); test: as above; assay type: cell-based, Salmonella choleraesuis ATCC 10708; conditions: Salmonella enterica, 48 hours
Experimental: as §1, §2, §3, §4, §5, §6, §7

Candida albicans (Ca) = test: Minimum inhibitory concentration (MIC), yeast/fungi in malt yeast agar; assay type: cell-based, Candida albicans ATCC 10231; conditions: 30° C., 48 hours for yeast
Experimental: as §1
(§8) Malt yeast agar is prepared by adding 3 g yeast extract and 45 g malt agar per liter of deionized water. The specific agar is dispensed in 30 mL aliquots into 25×200 mm test tubes, capped and autoclaved for 15 minutes at 115° C.
as §3
(§9) The inoculation with the yeast and fungi is accomplished as follows. Cultures of yeast and fungi are incubated for seven days on malt yeast agar at 30° C. These cultures are used to prepare suspensions by the following procedure. A suspension of each organism is prepared by adding 10 mL of sterile saline and 10 microliters of octylphenoxy polyethoxy ethanol to the agar slant of yeast or fungi. The sterile saline/octylphenoxy polyethoxy ethanol solution is then agitated with a sterile swab to suspend the microorganism grown on the slant. Each resulting suspension is diluted into sterile saline (1 part suspension to 9 parts sterile saline). Aliquots of these dilutions are placed in individual wells of Steer's Replicator and petri plates inoculated as previously described. The petri plates are incubated at 30° C. and read after 48 hours for yeast and 72 hours for fungi.
as §6, §7

[4] = tested on: Penicillium chrysogenum (Pc); test: as above; assay type: cell-based, Penicillium chrysogenum ATCC 9480; conditions: 30° C., 72 hours for fungi
Experimental: as §1, §8, §3, §9, §6, §7

[5] = tested on: Saccharomyces cerevisiae (Sc); test: as above; assay type: cell-based, Saccharomyces cerevisiae ATCC 4105; conditions: 30° C., 48 hours for yeast
Experimental: as §1, §8, §3, §9, §6, §7

marine organisms = test: Marine antifouling activity, coated test panels exposed to marine environment; conditions: scale 10 (completely free of growth) to 0 (completely covered); for Marine Antifouling Rating, 6 Week Test, Bottom Panel / Marine Antifouling Rating, 6 Week Test, Top Panel: 6 weeks; for Marine Antifouling Rating, 6 Week Test, Bottom Panel / Marine Antifouling Rating, 15 Week Test, Bottom Panel: bottom panel (black background); for Marine Antifouling Rating, 6 Week Test, Top Panel / Marine Antifouling Rating, 15 Week Test, Top Panel: top panel (white background); for Marine Antifouling Rating, 15 Week Test, Bottom Panel / Marine Antifouling Rating, 15 Week Test, Top Panel: 15 weeks
Experimental: Test panels are prepared from clear, rigid polyvinyl chloride film that is 0.381×10^-3 m thick and has one textured surface. The test panels are 0.1524 m by 0.1524 m squares that have 0.00635 m holes punched at corners on 0.127 m centers. A 0.102 square template, with a 0.067 m diameter hole at the center, is attached to the center of the textured surface of the test panels.
A candidate marine antifoulant compound (1.0 g) is stirred into a resinous latex binder (9.0 g). A portion of the compound/binder mixture (1.5 g) is added to the center of the test panel and uniformly spread over the circular area inside the template.
Water is added dropwise as needed to properly spread the compound/binder mixture. The template prevents the compound/binder mixture from spreading beyond the uncovered area. […] The template is then removed. The test panel is then allowed to dry for 8 to 12 hours at room temperature.
Two test panels are prepared for each candidate marine antifoulant compound. Two control test panels are also prepared by only treating with the resinous latex binder. One test panel of each candidate marine […] compound is attached over a white background to the topside of an exposure support apparatus. The second test panel is attached over a black background to the underside of the exposure support apparatus. The exposure support apparatus is placed horizontally 0.0254 m under a marine surface with the white background topside facing up.
After being removed from the exposure support apparatus, each test panel is inspected and rated for marine organism growth on both the treated and untreated areas of the test panel. The marine organisms present on the treated and untreated areas are noted. The presence of algae spores and bacterial slime are noted but not included in rating each test panel. The test panels are rated on a scale from 10 (representing completely free of marine organism growth) to 0 (representing completely covered with marine organism growth).
In addition, test panels were prepared using tributyl tin oxide, a known marine antifouling compound.

SMILES | MIC (Escherichia coli (Ec); nutrient agar pH 6.8, 30° C.) [µg/mL] | MIC (Escherichia coli (Ec); nutrient agar pH 8.2, 30° C.) [µg/mL] | MIC ([1]; nutrient agar pH 6.8, 30° C.) [µg/mL] | MIC ([1]; nutrient agar pH 8.2, 30° C.) [µg/mL] | MIC (Proteus vulgaris (Pv); nutrient agar pH 6.8, 30° C.) [µg/mL] | MIC (Proteus vulgaris (Pv); nutrient agar pH 8.2, 30° C.) [µg/mL] | MIC ([2]; nutrient agar pH 6.8, 30° C.) [µg/mL] | MIC ([2]; nutrient agar pH 8.2, 30° C.) [µg/mL] | MIC ([3]; nutrient agar pH 6.8, 30° C.) [µg/mL] | MIC ([3]; nutrient agar pH 8.2, 30° C.) [µg/mL] | MIC (Candida albicans (Ca)) [µg/mL] | MIC [4] [µg/mL] | MIC [5] [µg/mL] | Marine Antifouling Rating, 6 Week Test, Bottom Panel (marine organisms) | Marine Antifouling Rating, 6 Week Test, Top Panel (marine organisms) | Marine Antifouling Rating, 15 Week Test, Bottom Panel (marine organisms) | Marine Antifouling Rating, 15 Week Test, Top Panel (marine organisms)
N#CSCSc1nnnn1-c1ccc(Cl)cc1 [III, 1-(4-Chlorophenyl)-5-thiomethylthiocyanato-1H-tetrazole] | 25 (≈ 88.1 µM) | 250 (≈ 881 µM) | 25 (≈ 88.1 µM) | 50 (≈ 176 µM) | 25 (≈ 88.1 µM) | 100 (≈ 352 µM) | 25 (≈ 88.1 µM) | 50 (≈ 176 µM) | 25 (≈ 88.1 µM) | 100 (≈ 352 µM) | 5 (≈ 17.6 µM) | < 1 | 2.5 (≈ 8.81 µM) | 9 | 9 | 1 | 4
N#CSCSc1nnnn1C1CCCCC1 [X, 1-(Cyclohexyl)-5-thiomethylthiocyanato-1H-tetrazole] | 250 (≈ 979 µM) | 500 (≈ 1960 µM) | 250 (≈ 979 µM) | 100 (≈ 392 µM) | 250 (≈ 979 µM) | 250 (≈ 979 µM) | 500 (≈ 1960 µM) | 500 (≈ 1960 µM) | 250 (≈ 979 µM) | 500 (≈ 1960 µM) | 50 (≈ 196 µM) | < 1 | 5 (≈ 19.6 µM) | 10 | 9 | 8 | 4
Cc1cccc(-n2nnnc2SCSC#N)c1 [VI, 1-(3-Methylphenyl)-5-thiomethylthiocyanato-1H-tetrazole] | 500 (≈ 1900 µM) | 500 (≈ 1900 µM) | 250 (≈ 949 µM) | 100 (≈ 380 µM) | 100 (≈ 380 µM) | 100 (≈ 380 µM) | 500 (≈ 1900 µM) | 500 (≈ 1900 µM) | 500 (≈ 1900 µM) | 500 (≈ 1900 µM) | 5 (≈ 19 µM) | < 1 | < 1 | 10 | 9 | 9 | 8
N#CSCSc1nnnn1-c1cccc(Cl)c1 [II, 1-(3-Chlorophenyl)-5-thiomethylthiocyanato-1H-tetrazole] | 500 (≈ 1760 µM) | 500 (≈ 1760 µM) | 250 (≈ 881 µM) | 250 (≈ 881 µM) | 100 (≈ 352 µM) | 250 (≈ 881 µM) | 500 (≈ 1760 µM) | 250 (≈ 881 µM) | 500 (≈ 1760 µM) | 500 (≈ 1760 µM) | < 10 | < 10 | < 10 | 10 | 9 | 6 | 9
